In ChEMBL document CHEMBL1201862, “PubChem BioAssay data set” (2004):
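Compound exposure: 48 hours, 5 concentrations, 96-well plates. At the GI50, growth is halved.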 Calls of active or inactive are those of the source. Rule as the data show it: active = GI50 up to about 1.1 µM and inactive = higher.

How the values were obtained:
Experiment in all cases: NCI-60 cell line screen, 48 h
786-0 = tested on: 786-0
A498 = tested on: A498
A549 = tested on: A549
ACHN = tested on: ACHN
CAKI-1 = tested on: CAKI-1
CCRF-CEM = tested on: CCRF-CEM
COLO 205 = tested on: COLO 205
DLD-1 = tested on: DLD-1
DMS-114 = tested on: DMS-114
DMS-273 = tested on: DMS-273
EKVX = tested on: EKVX
HCT-116 = tested on: HCT-116
HCT-15 = tested on: HCT-15
HL-60 = tested on: HL-60
HOP-62 = tested on: HOP-62
HOP-92 = tested on: HOP-92
K562 = tested on: K562
KM-20L2 = tested on: KM-20L2
KM12 = tested on: KM12
LOX IMVI = tested on: LOX IMVI
M14 = tested on: M14
M19-MEL = tested on: M19-MEL
MOLT-4 = tested on: MOLT-4
NCI-H23 = tested on: NCI-H23
NCI-H460 = tested on: NCI-H460
NCI-H522 = tested on: NCI-H522
OVCAR-3 = tested on: OVCAR-3
OVCAR-4 = tested on: OVCAR-4
OVCAR-8 = tested on: OVCAR-8
RPMI-8226 = tested on: RPMI-8226
RXF 393 = tested on: RXF 393
SF-268 = tested on: SF-268
SF-295 = tested on: SF-295
SF-539 = tested on: SF-539
SK-MEL-28 = tested on: SK-MEL-28
SK-MEL-2 = tested on: SK-MEL-2
SK-MEL-5 = tested on: SK-MEL-5
SK-OV-3 = tested on: SK-OV-3
SN12C = tested on: SN12C
SNB-19 = tested on: SNB-19
SNB-75 = tested on: SNB-75
SNB-78 = tested on: SNB-78
SR = tested on: SR
SW-620 = tested on: SW-620
TK-10 = tested on: TK-10
U-251 = tested on: U-251
UACC-257 = tested on: UACC-257
UACC-62 = tested on: UACC-62
UO-31 = tested on: UO-31
XF498 = tested on: XF498
BT-549 = tested on: BT-549
DU-145 = tested on: DU-145
HCC 2998 = tested on: HCC 2998
HT-29 = tested on: HT-29
Hs-578T = tested on: Hs-578T
IGROV-1 = tested on: IGROV-1
MCF7 = tested on: MCF7
MDA-MB-231 = tested on: MDA-MB-231
MDA-MB-435 = tested on: MDA-MB-435
MDA-N = tested on: MDA-N
Malme-3M = tested on: Malme-3M
NCI-H226 = tested on: NCI-H226
NCI/ADR-RES = tested on: NCI/ADR-RES
OVCAR-5 = tested on: OVCAR-5
PC-3 = tested on: PC-3
T47D = tested on: T47D

Measured: GI50

OC1(C(Sc2ccccc2)Sc2ccccc2)CCCCCC1
inactive: 786-0 22.4 µM | A498 34 µM | A549 28 µM | ACHN 26 µM | CAKI-1 12.2 µM | CCRF-CEM 25.2 µM | COLO 205 23.6 µM | DLD-1 38.4 µM | DMS-114 27.1 µM | DMS-273 27.8 µM | EKVX 21.2 µM | HCT-116 27.8 µM | HL-60 24 µM | HOP-62 21.9 µM | HOP-92 28.6 µM | K562 > 10 µM | KM-20L2 2.81 µM | KM12 34.9 µM | LOX IMVI 19.3 µM | M14 18.7 µM | M19-MEL 35.2 µM | MOLT-4 28.6 µM | NCI-H23 35.8 µM | NCI-H460 28.2 µM | NCI-H522 11.5 µM | OVCAR-3 20.9 µM | OVCAR-4 6.19 µM | OVCAR-8 38.8 µM | RPMI-8226 21.5 µM | RXF 393 > 10 µM | SF-268 33.1 µM | SF-295 26.8 µM | SF-539 21.9 µM | SK-MEL-28 56.1 µM | SK-MEL-2 18.1 µM | SK-MEL-5 16.1 µM | SK-OV-3 22.5 µM | SN12C 16.2 µM | SNB-19 14.1 µM | SNB-75 33.4 µM | SNB-78 74.1 µM | SR 20.8 µM | SW-620 26.2 µM | TK-10 58.2 µM | U-251 21.8 µM | UACC-257 26.9 µM | UACC-62 11.5 µM | UO-31 3.13 µM | XF498 13.6 µM
24.4 µM: HCT-15

COc1cc2ncnc(Nc3cccc(Br)c3)c2cc1OC
inactive: 786-0 2.11 µM | A498 3.12 µM | A549 7.6 µM | BT-549 12.8 µM | CAKI-1 1.37 µM | CCRF-CEM 30.2 µM | COLO 205 4.43 µM | HCC 2998 3.26 µM | HCT-116 14.4 µM | HL-60 > 28.8 µM | HOP-62 10.4 µM | HOP-92 3.97 µM | HT-29 3.83 µM | Hs-578T 4.44 µM | IGROV-1 2.02 µM | K562 15.9 µM | KM12 2.7 µM | LOX IMVI 3.1 µM | M14 3.79 µM | MCF7 23.1 µM | MDA-MB-231 5.61 µM | MDA-MB-435 7.48 µM | MDA-N 7.26 µM | MOLT-4 16.6 µM | Malme-3M 7.36 µM | NCI-H226 3.25 µM | NCI-H23 12.5 µM | NCI-H460 5.75 µM | NCI/ADR-RES 2.46 µM | OVCAR-3 5.14 µM | OVCAR-4 4.07 µM | OVCAR-5 8.13 µM | OVCAR-8 3.72 µM | PC-3 3.77 µM | RPMI-8226 34.1 µM | RXF 393 11.5 µM | SF-268 3.81 µM | SF-295 3.17 µM | SF-539 4.07 µM | SK-MEL-28 4.52 µM | SK-MEL-2 3.14 µM | SK-MEL-5 2.18 µM | SN12C 13.2 µM | SNB-19 15.2 µM | SNB-75 3.05 µM | SR 20.3 µM | SW-620 13.2 µM | T47D 6.81 µM | U-251 7.06 µM | UACC-257 7.5 µM | UACC-62 3.85 µM | UO-31 1.98 µM
active: ACHN 0.06 µM | DU-145 0.0741 µM | EKVX 0.316 µM | NCI-H522 0.338 µM | SK-OV-3 0.284 µM | TK-10 0.653 µM
6.56 µM: HCT-15
